Usually IC50 stands for the concentration needed to halve the response being measured.

Assay type in all cases: biochemical
One assay addresses T1, Aβ(1-40) peptide (Homo sapiens, UniProt P05067).
T1 construct: Soluble Aβ(1-40) peptide (Bachem, Torrance, Calif.); purchased Bachem, Torrance, Calif
As to the kind of experiment: BASSR (Beta-Amyloid Self-Seeding Radioassay), inhibitors of self-seeded amyloid fibril growth. The note with it: 30 μM soluble Aβ(1-40) + 125I-labeled Aβ(1-40), pH 7.5, 37° C. for 3 to 5 hours, filtration. How it is done: 1. BASSR (Beta-Amyloid Self-Seeding Radioassay)
An assay for inhibitors of self-seeded amyloid fibril growth
(§1) Assay Buffer—50 mM sodium phosphate, pH 7.5, 100 mM NaCl, 0.02% NaN3, 1 M urea (filter and store at 4° C.)
Soluble Aβ(1-40) peptide (Bachem, Torrance, Calif.)—2.2 mg/mL in deionized H2O (is stored in aliquots at −20° C.; is kept on ice when thawed) will self-seed after 1 week storage. Typically, the solution is stored until no lag phase is seen in the assay.
^125I-labeled Aβ(1-40)—150K to 350K cpm/μL in 100% acetonitrile—0.1% trifluoroacetic acid (TFA)—1% β-mercaptoethanol (aliquots stored at −20° C.). ^125I-labeled Aβ(1-40) is made in accordance with the procedure set forth by LeVine H., III, in Neurobiol. Aging, 1995;16:755, which is hereby incorporated by reference, or this reagent may be purchased from Amersham, Arlington Heights, Ill.
Final assay conditions: 30 μM soluble Aβ(1-40) in deionized water in assay buffer+20 K to 50 K cpm ^125I-labeled Aβ(1-40) per assay. Compound to be tested is dissolved in dimethylsulfoxide (DMSO), typically 5 to 50 mM stock, such that the final concentration of DMSO is <1% v/v in the assay.
Assay: Reaction mixture for 50 assays (on ice) is comprised of 0.1 to 0.2 μL of ^125I-labeled A^125I-labeled Aβ(1-40)+1 μL of soluble Aβ(1-40)+13.5 μL assay buffer per assay. The following are the amounts of the components of the reaction mixture sufficient for 50 assay wells.
1) The reaction mixture of above is prepared by mixing components and storing on ice.
2) 14.5 μL of the reaction mixture is pipetted into each of 50 wells on a polypropylene U-bottom 96-well microtiter plate on ice (Costar 3794).
(§2) 3) 1.7 μL of diluted compound to be tested is added to each well in a column of eight, including solvent control. Serial 3-fold dilutions from 1 mM (100 μM final) in assay buffer−urea=7 dilutions+zero. Each 96-well plate can therefore accommodate 11 samples+1 Congo Red control (0.039-5 μM final in 2-fold steps).
4) The plate with aluminum film (Beckman 538619) is sealed and incubated for 10 minutes on ice.
(§3) 5) The temperature is raised to 37° C. and incubated for 3 to 5 hours (depending on the lot of the peptide).
6) The aluminum film is removed and 200 μL/well of ice cold assay buffer with urea is added. The radiolabeled fibrils are collected by vacuum filtration through 0.2 μm pore size GVWP filters in 96-well plates (Millipore MAGV N22, Bedford, Mass.). The radioactivity of the filters is determined by using standard methods well-known to those skilled in the art.

In the next assay the target is T2, Aβ (1-40) (Homo sapiens, UniProt P05067).
T2 construct: Soluble Aβ (1-40)—2.2 mg/mL in deionized H2O
T2 sequence (P05067 672-711): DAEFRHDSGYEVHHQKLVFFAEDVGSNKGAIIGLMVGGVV
As to the kind of experiment: BASST (Beta-Amyloid Self-Seeding, ThioflavinT), inhibitors of self-seeded amyloid fibril growth. The note with it: 30 μM soluble Aβ(1-40), pH 7.5, 37° C. for 3 to 5 hours, thioflavin T fluorescence. As to the method: 2. BASST (Beta-Amyloid Self-Seeding, ThioflavinT)
An assay for inhibitors of self-seeded arnyloid fibril growth
as §1
Soluble Aβ (1-40)—2.2 mg/mL in deionized H2O (is stored in aliquots at −20° C.; is kept on ice when thawed) will self-seed after 1 week storage. Typically, the solution is stored until no lag phase is seen in the assay.
Final assay conditions: 30 μM soluble Aβ(1-40) in deionized water in assay buffer. Compound to be tested is dissolved in DMSO, typically 5 to 50 mM stock, such that the final concentration of DMSO is <1% v/v in the assay.
Assay: Reaction mixture for 50 assays (on ice) is comprised of 1 μL of soluble Aβ(1-40)+13.5 μL assay buffer per assay. The following are the amounts of the components of the reaction mixture that result in each of the 50 assay wells.
1) The reaction mix above is prepared by mixing the components and storing on ice.
2) 14.5 μL of reaction mixture is pipetted into each of 50 wells of a polystyrene U-bottom, 96-well microtiter plate (Corning 25881-96) on ice.
as §2
4) The plate with aluminum film is sealed and incubated for 10 minutes on ice.
as §3
6) The aluminum film is removed and 250 μL/well of 5 μM thioflavin T (ThT) [T-3516, Sigma-Aldrich] is added in 50 mM glycine-NaOH, pH 8.5. Fluorescence is read on a plate reader (ex=440 nm/20 nm; em=485 nm/20 nm) within 5 minutes.

The target of the next assay is T3, Aβ (1-42) (Homo sapiens, UniProt P05067).
T3 construct: Required Aβ (1-42) (California Peptide) is dried from its hexafluoroisopropanol (HFIP) stock solution; purchased California Peptide
T3 sequence (P05067 672-713): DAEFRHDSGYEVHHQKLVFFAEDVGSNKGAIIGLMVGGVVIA
As to the kind of experiment: Batym Assay (Aβ(1-42) aggregation, Thioflavin T fluorescence). The note with it: Aβ 1-42 final concentration 100 μM, PBS pH 7.4, 37° C. for 1 day, ThT fluorescence. As to the method:
Required Aβ (1-42) (California Peptide) is dried from its hexafluoroisopropanol (HFIP) stock solution. The Aβ (1-42) is dissolved in DMSO and then mixed with phosphate buffered saline (PBS) (pH 7.4). The mixed Aβ (1-42) solution is filtered with a GVWP 0.22 μm syringe filter (Millipore, Bedford, Mass.). The compound to be tested in DMSO (50 times concentrate) is put into each well (0.5 μL/well) of a 96-well plate. The Aβ(1-42) solution is added into each well (25 μL/well). The plate is centrifuged at 1000 g for 5 minutes and incubated at 37° C. for 1 day (Aβ 1-42; final concentration 100 μM).
After incubation Thioflavin T (ThT) (30 μM) solution in glycine-NaOH buffer (pH 8.5, 50 mM) is added into each well (250 μL/well), fluorescence is measured (ex=440/20 nm, em=485/20 nm) using a fluorescence plate reader. The inhibitory activity is calculated as the reduction of fluorescence with the following formula:
Inhibition(%)={(F(Aβ)−F(Aβ+compound)}/{F(Aβ)−F(solvent−compound)}×100.
The IC50s are calculated by a curve-fitting program using the equation given below. The data is obtained from two different experiments in triplicate.
x=concentration of tested compound (M),

Values joined by “and” are separate entries in the source; they are usually repeats but may differ in a detail not shown here. Equal values may be shown once. Read-outs that look alike come from different tables or passages of the source.

T1 sequence (P05067 672-711): as the sequence (P05067 672-711) above

As to `O=C1OC(c2ccccc2)=N/C1=C\c1ccccc1` [compound 1, 4-Benzylidene-2-phenyl-4H-oxazol-5-one], the half-maximal inhibitory concentration (IC50) at Aβ(1-40) peptide (read-out: BASSR (IC50 = μM)) and at Aβ (1-40) (read-out: BASST (IC50 = μM)) was more than 100 µM throughout.

Turning to `O=C1OC(c2ccccc2)=N/C1=C\c1ccc2c(c1)OCO2` [compound 2, 4-1,3-Benzodioxol-5-ylmethylene-2-phenyl-4H-oxazol-5-one], the concentration for half-maximal inhibition (IC50) on Aβ(1-40) peptide (read-out: BASSR (IC50 = μM)) was 21 µM; against Aβ (1-42) it was more than 100 µM.

Regarding `COc1c(/C=C2\N=C(c3ccccc3)OC2=O)cc([N+](=O)[O-])cc1[N+](=O)[O-]` [compound 3, 4-(2-Methoxy-3,5-dinitro-benzylidene)-2-phenyl-4H-oxazol-5-one], the IC50 at Aβ(1-40) peptide (BASSR (IC50 = μM)) is more than 100 µM; against Aβ (1-40) (BASST (IC50 = μM)) it was 7 µM.

`COc1ccc(/C=C2\N=C(c3ccccc3)OC2=O)cc1OC` [compound 4, 5(4H)-Oxazolone,4-[(3,4-dimethoxyphenyl)methylene]-2-phenyl-]: the IC50 at Aβ(1-40) peptide (read-out: BASSR (IC50 = μM)) was 7 µM and 8 µM; at Aβ (1-40) (read-out: BASST (IC50 = μM)), more than 100 µM; against Aβ (1-42), more than 100 µM.

For `COc1ccc(C2=N/C(=C\c3ccccc3)C(=O)O2)cc1` [compound 5, 4-Benzylidene-2-(4-methoxy-phenyl)-4H-oxazol-5-one], the half-maximal inhibitory concentration (IC50) on Aβ(1-40) peptide (read-out: BASSR (IC50 = μM)) worked out at 16 µM.

Consider `CN(C)c1ccc(/C=C2\N=C(c3ccccc3)OC2=O)c2ccccc12` [compound 6, 4-(4-Dimethylamino-naphthalen-1-ylmethylene)-2-phenyl-4H-oxazol-5-one], for which the IC50 on Aβ(1-40) peptide (read-out: BASSR (IC50 = μM)) is more than 100 µM; on Aβ (1-40) (read-out: BASST (IC50 = μM)), 2.6 µM; against Aβ (1-42) it was 14.5 µM.

Take `CCCN(CCC)c1ccc(/C=C2/N=C(c3ccccc3)OC2=O)cc1` [compound 7, 4-(4-Dipropylamino-benzylidene)-2-phenyl-4H-oxazol-5-one]: the IC50 is more than 100 µM at Aβ(1-40) peptide (read-out: BASSR (IC50 = μM)); 8 µM on Aβ (1-40) (read-out: BASST (IC50 = μM)); 2.42 µM and 2.36 µM against Aβ (1-42).

Consider `COc1cccc(/C=C2\N=C(c3ccccc3)OC2=O)c1` [compound 8, 4-(3-Methoxy-benzylidene)-2-phenyl-4H-oxazol-5-one], for which the IC50 at Aβ(1-40) peptide (read-out: BASSR (IC50 = μM)) was more than 100 µM; at Aβ (1-40) (read-out: BASST (IC50 = μM)), 7 µM.

For the compound `COc1cccc(/C=C2\N=C(c3ccc([N+](=O)[O-])cc3)OC2=O)c1OC` [compound 9, 4-(2,3-Dimethoxy-benzylidene)-2-(4-nitro-phenyl)-4H-oxazol-5-one], the IC50 at Aβ(1-40) peptide (read-out: BASSR (IC50 = μM)) was more than 100 µM; on Aβ (1-40) (read-out: BASST (IC50 = μM)), 12 µM.

Consider `COc1ccc(/C=C2\N=C(c3ccccc3I)OC2=O)cc1OC` [compound 10, 4-(3,4-Dimethoxy-benzylidene)-2-(2-iodo-phenyl)-4H-oxazol-5-one], for which the IC50 on Aβ(1-40) peptide (read-out: BASSR (IC50 = μM)) is more than 100 µM; on Aβ (1-40) (read-out: BASST (IC50 = μM)), 15 µM.

Regarding `O=C1OC(c2ccccc2)=N/C1=C\c1ccc(Cl)c(Cl)c1` [compound 11, 4-(3,4-Dichloro-benzylidene)-2-phenyl-4H-oxazol-5-one], the half-maximal inhibitory concentration (IC50) at Aβ(1-40) peptide (read-out: BASSR (IC50 = μM)) was 21 µM; at Aβ (1-40) (read-out: BASST (IC50 = μM)), 30 µM.

Regarding `Cc1ccc(/C=C2\N=C(c3ccccc3)OC2=O)cc1C` [compound 12, 4-(3,4-Dimethyl-benzylidene)-2-phenyl-4H-oxazol-5-one], the 50% inhibitory concentration (IC50) on Aβ(1-40) peptide (read-out: BASSR (IC50 = μM)) was more than 100 µM.

For the compound `O=C1OC(c2ccc([N+](=O)[O-])cc2)=N/C1=C\c1ccc(Cl)c(Cl)c1` [compound 13, 4-(3,4-Dichloro-benzylidene)-2-(4-nitro-phenyl)-4H-oxazol-5-one], the 50% inhibitory concentration (IC50) on Aβ(1-40) peptide (read-out: BASSR (IC50 = μM)) worked out at 70 µM; on Aβ (1-40) (read-out: BASST (IC50 = μM)), 90 µM.

Regarding `O=C1OC(c2ccccc2)=N/C1=C\c1ccc(F)c(C(F)(F)F)c1` [compound 14, 4-(4-Fluoro-3-trifluoromethyl-benzylidene)-2-phenyl-4H-oxazol-5-one], the IC50 at Aβ(1-40) peptide (read-out: BASSR (IC50 = μM)) and at Aβ (1-40) (read-out: BASST (IC50 = μM)) was more than 100 µM in each case.

These data come from patent US20040180943A1, “Oxazolone analogs as amyloid aggregation inhibitors and for the treatment of alzheimer's disease and disorders related to amyloidosis” (priority 2002, published 2004).
